Measurements taken from patent US11590092B2, “Skin probiotic” (The Regents of the University of California, priority 2014, dated 2023).
Values after ≈ are worked out from the molar mass of the structure shown.

Experiments:
USA300 [1] = test: MBC assay against USA300; format: cell-based, Staphylococcus aureus
Experimental: To determine the MBC of propionic acid, USA300 (10^6 CFU/ml) were incubated with propionic acid at various concentrations (1.25-100 mM in PBS) as indicated in each individual experiment in media on a 96-well microplate (100 μl per well) overnight. The control received only PBS. After incubation, the bacteria were diluted 1:10-1:10^6 with PBS. […] To determine the pH effect on the bacterial growth, USA300 in TSB was incubated with 2.5 mM propionic acid on a 96-well microplate (100 μl per well) overnight before spotting on an agar plate.
To determine the minimal bactericidal concentration (MBC) and minimal fungicidal concentration (MFC) of propionic acid, microorganisms (10^6 colony forming units (cfu)/ml) were incubated overnight in media with propionic acid (1.25-2,000 mM) in a 96-well microplate (100 μl per well). The control only received PBS. After incubation, the microorganisms were diluted 1:10-1:10^6 into PBS. […]

C. albicans = test: Minimal fungicidal concentration test against C. albicans; format: cell-based, Candida albicans; settings: MBC/MFC test
Experimental: To determine the minimal bactericidal concentration (MBC) and minimal fungicidal concentration (MFC) of propionic acid, microorganisms (10^6 colony forming units (cfu)/ml) were incubated overnight in media with propionic acid (1.25-2,000 mM) in a 96-well microplate (100 μl per well). The control only received PBS. After incubation, the microorganisms were diluted 1:10-1:10^6 into PBS. The dilutions (5 μl) were spotted onto agar media to count cfu; MBC/MFC were determined at 99.9% killing level. To determine the effect of pH on growth of S. aureus USA300, the bacterium was incubated in TSB at pH 5.8 and 6.8, and TSB with 25 mM propionic acid at pH 5.8 and 6.8 (buffered with 4-(2-hydroxyethyl)-1-piperazineethanesulfonic acid (HEPES)) in a 96-well microplate overnight before spotting onto agar plates.

USA300 [2] = test: Measurement of intracellular pH of USA300 (cFSE probe); format: cell-based, Staphylococcus aureus; settings: 25 mM propionic acid, vs PBS
Experimental: Measurement of intracellular pH. […] A drop in relative fluorescence indicated the decrease in intracellular pH. […] The fluorescence of the bacteria-free supernatant was measured and deducted from values for the treated suspensions.
Fluorescence was measured for 5 min every min using an excitation wavelength of 490 nm and an emission wavelength of 520 nm. A reduction in relative fluorescence reflected a decrease in intracellular pH. Fluorescence of bacteria-free supernatant obtained by centrifugation at 5,000×g for 5 min after the 5-min assay was measured to correct for background fluorescence. Calibration curves were obtained by incubation of untreated, cFSE-loaded bacteria in buffer containing 50 mM glycine, 50 mM citric acid, 50 mM Na2HPO4.2H2O and 50 mM KCl adjusted to various pH values from 4-10. 1 μM valinomycin and nigericin (Sigma) were added to equilibrate the intracellular and extracellular pH.

[3] = test system: S. aureus strains ATCC29247 and CMCC(B)26003; test: Inhibition of other S. aureus strains; format: cell-based, Staphylococcus aureus

## CCC(=O)O [propionic acid]
USA300 [1]; 25 mM
  antimicrobial activity against USA300: excellent antimicrobial activity
USA300 [1]; 25 mM propionic acid (pH 5.8), 24 h, USA300 10^6 CFU
  bacterial numbers of USA300: 4.9±0.2×10^4 CFU/ml
USA300 [1]; 25 mM propionic acid (pH 6.8) buffered with ammonium hydroxide
  antimicrobial activity against USA300 after buffering: remained
USA300 [1]; MBC test
  concentration that completely killed USA300: greater than or equal to 100 mM
USA300 [1]; MBC test, more than 1 log10 reduction
  concentration that effectively suppressed the growth of USA300: greater than 25 mM
USA300 [1]; MBC test, listed as Propionic acid
  concentration that completely killed USA300: greater than 100 mM
USA300 [1]; Staphylococcus aureus, in TSB, USA300 10^6 CFU/ml, overnight
  MBC: 25 mM (≈ 1850 µg/mL)
USA300 [1]; dissolved in 4% dimethyl sufoxide, overnight
  concentration for a complete growth inhibition of USA300: 100 Mm
USA300 [1]; dissolved in 4% dimethyl sufoxide, overnight, 0-100 mM
  MBC (>1 log10 inhibition) against USA300: 25 mM
C. albicans
  concentration that completely killed C. albicans: greater than or equal to 25 mM
  concentration that effectively suppressed the growth of C. albicans: greater than 10 mM
USA300 [2]
  intracellular pH of USA300: considerably lowered
[3]
  inhibition of S. aureus strains besides USA300: inhibit
